Measured values: ChEMBL document CHEMBL1154047, “Chiral gossypol derivatives: evaluation of their anticancer activity and molecular modeling” (Eur J Med Chem, 2009)
Values joined by “and” are separate entries in the source; they are usually repeats but may differ in a detail not shown here. Equal entries are not always repeated.

Experiments:
HeLa [1] = assay: Anticancer activity against human HeLa cells after 48 hrs by MTT assay; assay type: functional, cell-based
[2] = Ratio of compound IC50 to (-)-gossypol IC50 for human U87 cells; assay type: functional, U-87MG ATCC
[3] = Anticancer activity against human M85 cells after 48 hrs by MTT assay; assay type: functional, cell-based
HeLa [4] = assay: Ratio of compound IC50 to (-)-gossypol IC50 for human HeLa cells; assay type: functional
HeLa [5] = assay: Ratio of compound IC50 to cisplatin IC50 for human HeLa cells; assay type: functional
[6] = Anticancer activity against human U87 cells after 48 hrs by MTT assay; assay type: functional, cell-based, U-87MG ATCC
[7] = Ratio of compound IC50 to cisplatin IC50 for human M85 cells; assay type: functional
[8] = Ratio of compound IC50 to (-)-gossypol IC50 for human M85 cells; assay type: functional
[9] = Ratio of compound IC50 to cisplatin IC50 for human U87 cells; assay type: functional, U-87MG ATCC

Compound | IC50 (HeLa [1]; hela) [µM] | Ratio IC50 [2] | IC50 ([3]; m85) | Ratio IC50 (HeLa [4]) | Ratio IC50 (HeLa [5]) | IC50 ([6]; u-87mg atcc) [µM] | Ratio IC50 [7] | Ratio IC50 [8] | Ratio IC50 [9] | IC50 (HeLa [1]; Homo sapiens, HeLa, 48 h) [µM] | IC50 ([3]; Homo sapiens, M85, 48 h) [µM] | IC50 ([6]; Homo sapiens, U-87 MG, 48 h) [µM]
Cc1cc2c(c(O)c1-c1c(C)cc3c(c1O)/C(=C/N[C@H](CO)[C@H](O)c1ccc([N+](=O)[O-])cc1)C(=O)C(O)=C3C(C)C)/C(=C/N[C@H](CO)[C@H](O)c1ccc([N+](=O)[O-])cc1)C(=O)C(O)=C2C(C)C (stereo in doubt; 1a) | 19.6 | 1.01 | 19 µM | 1.1 | 1.56 | 30.6 | 1.28 | 1.03 | 1.79 |  |  | 
Cc1cc2c(c(O)c1-c1c(C)cc3c(c1O)/C(=C/NCCCO)C(=O)C(O)=C3C(C)C)/C(=C/NCCCO)C(=O)C(O)=C2C(C)C (stereo in doubt; 4b) | 12.5 | 0.4 | 5.4 µM | 0.7 | 0.99 | 12.1 | 0.36 | 0.29 | 0.71 |  |  | 
COC(=O)[C@H](Cc1c[nH]c2ccccc12)N/C=C1\C(=O)C(O)=C(C(C)C)c2cc(C)c(-c3c(C)cc4c(c3O)/C(=C/N[C@@H](Cc3c[nH]c5ccccc35)C(=O)OC)C(=O)C(O)=C4C(C)C)c(O)c21 (stereo in doubt; 9a) |  |  |  |  |  |  |  |  |  | > 80 | > 80 | > 80
COC(=O)[C@H](Cc1ccccc1)N/C=C1\C(=O)C(O)=C(C(C)C)c2cc(C)c(-c3c(C)cc4c(c3O)/C(=C/N[C@@H](Cc3ccccc3)C(=O)OC)C(=O)C(O)=C4C(C)C)c(O)c21 (stereo in doubt; 7a) |  |  |  |  |  |  |  |  |  | > 80 | > 80 | > 80
Cc1cc2c(c(O)c1-c1c(C)cc3c(c1O)/C(=C/Nc1ccc(Br)cc1)C(=O)C(O)=C3C(C)C)/C(=C/Nc1ccc(Br)cc1)C(=O)C(O)=C2C(C)C (stereo in doubt; 6b) | 49.2 |  | 78.4 µM | 2.76 | 3.9 |  | 5.26 | 4.26 |  |  |  | 
Cc1cc2c(c(O)c1-c1c(C)cc3c(c1O)/C(=C/N[C@H](CO)[C@H](O)c1ccc([N+](=O)[O-])cc1)C(=O)C(O)=C3C(C)C)/C(=C/N[C@H](CO)[C@H](O)c1ccc([N+](=O)[O-])cc1)C(=O)C(O)=C2C(C)C (stereo in doubt; 1b) | 8.7 | 0.44 | < 2.5 µM | 0.49 | 0.69 | 13.3 | <0.17 | <0.14 | 0.78 |  |  | 
COC(=O)[C@H](Cc1ccccc1)N/C=C1\C(=O)C(O)=C(C(C)C)c2cc(C)c(-c3c(C)cc4c(c3O)/C(=C/N[C@@H](Cc3ccccc3)C(=O)OC)C(=O)C(O)=C4C(C)C)c(O)c21 (stereo in doubt; 7b) | 69 |  | 64.4 µM | 3.88 | 5.48 |  | 4.32 | 3.5 |  |  |  | 
Cc1cc2c(c(O)c1-c1c(C)cc3c(c1O)/C(=C/NCCCO)C(=O)C(O)=C3C(C)C)/C(=C/NCCCO)C(=O)C(O)=C2C(C)C (stereo in doubt; 4a) |  | 0.96 | 21.1 µM | 0.6 | 0.85 | 29 | 1.42 | 1.15 | 1.7 | 10.7 |  | 
COC(=O)[C@H](Cc1c[nH]c2ccccc12)N/C=C1\C(=O)C(O)=C(C(C)C)c2cc(C)c(-c3c(C)cc4c(c3O)/C(=C/N[C@@H](Cc3c[nH]c5ccccc35)C(=O)OC)C(=O)C(O)=C4C(C)C)c(O)c21 (stereo in doubt; 9b) |  |  | 52.3 µM |  |  |  | 3.51 | 2.84 |  |  |  | 
Cc1cc2c(c(O)c1-c1c(C)cc3c(c1O)/C(=C/Nc1ccc(Br)cc1)C(=O)C(O)=C3C(C)C)/C(=C/Nc1ccc(Br)cc1)C(=O)C(O)=C2C(C)C (stereo in doubt; 6a) |  |  |  | 4.14 | 5.85 |  |  |  |  | 73.7 | > 80 | > 80
Cc1cc2c(c(O)c1-c1c(C)cc3c(c1O)/C(=C/NC(C)C)C(=O)C(O)=C3C(C)C)/C(=C/NC(C)C)C(=O)C(O)=C2C(C)C (stereo in doubt; 10b) | 17.1 | 0.81 | 30.4 µM | 0.96 | 1.36 | 24.4 | 2.04 | 1.66 | 1.43 |  |  | 
Cc1cc2c(c(O)c1-c1c(C)cc3c(c1O)/C(=C/NCCc1ccccc1)C(=O)C(O)=C3C(C)C)/C(=C/NCCc1ccccc1)C(=O)C(O)=C2C(C)C (stereo in doubt; 3a) |  |  |  | 2.91 | 4.11 |  |  |  |  | 51.8 | > 80 | > 80
Cc1cc2c(C(C)C)c(O)c(O)c(C=O)c2c(O)c1-c1c(C)cc2c(C(C)C)c(O)c(O)c(C=O)c2c1O [GOSSYPOL] | 31.3 | 1 and 1.97 | 18.4 µM and 39.7 µM | 1 and 1.76 | 1.41 and 2.48 | 59.6 | 1.23 and 2.66 | 1 and 2.16 | 1.77 and 3.49 | 17.8 |  | 30.2
Cc1cc2c(c(O)c1-c1c(C)cc3c(c1O)/C(=C/N[C@H](CO)Cc1ccccc1)C(=O)C(O)=C3C(C)C)/C(=C/N[C@H](CO)Cc1ccccc1)C(=O)C(O)=C2C(C)C (stereo in doubt; 2b) | 14.7 | 0.97 | 15.5 µM | 0.83 | 1.17 | 29.3 | 1.04 | 0.84 | 1.71 |  |  | 
COc1c(OC)c2c3c(c(-c4c(C)cc5c(C(C)C)c(OC)c(OC)c6c5c4OC6OC)c(C)cc3c1C(C)C)OC2OC (stereo not drawn) [(-)-GOSSYPOL HEXAMETHYL ETHER] |  |  |  |  |  |  |  |  |  | > 80 | > 80 | > 80
Cc1cc2c(c(O)c1-c1c(C)cc3c(c1O)/C(=C/N[C@H](CO)Cc1ccccc1)C(=O)C(O)=C3C(C)C)/C(=C/N[C@H](CO)Cc1ccccc1)C(=O)C(O)=C2C(C)C (stereo in doubt; 2a) |  | 0.98 |  | 1.49 | 2.1 |  | 1.44 | 1.17 | 1.73 | 26.5 | 21.5 | 29.5
Cc1cc2c(c(O)c1-c1c(C)cc3c(c1O)/C(=C/NC1CC1)C(=O)C(O)=C3C(C)C)/C(=C/NC1CC1)C(=O)C(O)=C2C(C)C (stereo in doubt; 5b) | 13.5 | 1.07 | 17.5 µM | 0.76 | 1.07 | 32.4 |  |  | 1.89 |  |  | 
Cc1cc2c(c(O)c1-c1c(C)cc3c(c1O)/C(=C/NC1CC1)C(=O)C(O)=C3C(C)C)/C(=C/NC1CC1)C(=O)C(O)=C2C(C)C (stereo in doubt; 5a) | 55.9 |  |  | 3.14 | 4.44 | > 80 | 1.17 | 0.95 |  |  | 17.4 | 
CC1=C(C2=C(C)C(=O)c3c(c(C=O)c(O)c(O)c3C(C)C)C2=O)C(=O)c2c(C=O)c(O)c(O)c(C(C)C)c2C1=O [GOSSYPOLONE] |  | 0.86 |  | 1.31 | 1.85 |  | 1.9 | 1.54 | 1.53 | 23.3 | 28.3 | 26.1
Cc1cc2c(c(O)c1-c1c(C)cc3c(c1O)/C(=C/NCCc1ccccc1)C(=O)C(O)=C3C(C)C)/C(=C/NCCc1ccccc1)C(=O)C(O)=C2C(C)C (stereo in doubt; 3b) | 39.9 |  |  | 2.24 | 3.17 |  |  |  |  |  |  | 
Cc1cc2c(c(O)c1-c1c(C)cc3c(c1O)/C(=C/NC(C)C)C(=O)C(O)=C3C(C)C)/C(=C/NC(C)C)C(=O)C(O)=C2C(C)C (stereo in doubt; 10a) |  | 0.96 |  | 1.34 | 1.88 |  | 2.3 | 1.86 | 1.7 | 23.8 | 34.2 | 29.1
COC(=O)[C@H](Cc1ccc(O)cc1)N/C=C1\C(=O)C(O)=C(C(C)C)c2cc(C)c(-c3c(C)cc4c(c3O)/C(=C/N[C@@H](Cc3ccc(O)cc3)C(=O)OC)C(=O)C(O)=C4C(C)C)c(O)c21 (stereo in doubt; 8b) | 11.4 | 0.48 | 16.3 µM | 0.64 | 0.9 | 14.5 | 1.09 | 0.89 | 0.85 |  |  | 
Cc1cc2c(C(C)C)c(O)c(O)cc2c(O)c1-c1c(C)cc2c(C(C)C)c(O)c(O)cc2c1O [APOGOSSYPOL] | 14.1 | 1.17 and 0.94 | 61.2 µM | 1.43 and 0.79 | 2.02 and 1.12 | 28.5 | 4.11 | 3.33 | 2.08 and 1.67 | 25.5 | > 80 | 35.5
COC(=O)[C@H](Cc1ccc(O)cc1)N/C=C1\C(=O)C(O)=C(C(C)C)c2cc(C)c(-c3c(C)cc4c(c3O)/C(=C/N[C@@H](Cc3ccc(O)cc3)C(=O)OC)C(=O)C(O)=C4C(C)C)c(O)c21 (stereo in doubt; 8a) |  | 1.06 | 52.4 µM | 1.22 | 1.73 | 32.1 | 3.52 | 2.84 | 1.88 | 21.8 |  | 
